Source: the NIST ThermoML archive (doi:10.1021/acs.jced.7b00572)
Numbers after ± are expanded uncertainties.

Conditions: Liquid, Vibrating wire viscometry

O=C(C(F)(F)C(F)(F)F)C(F)(C(F)(F)F)C(F)(F)F [dodecafluoro-2-methylpentan-3-one]
Conditions | viscosity [mPa·s]
243.15 K, 10000 kPa | 1.923 ± 0.04
243.15 K, 20000 kPa | 2.329 ± 0.048
243.15 K, 40000 kPa | 3.247 ± 0.067
243.16 K, 100 kPa | 1.597 ± 0.034
243.16 K, 1000 kPa | 1.628 ± 0.034
243.16 K, 5000 kPa | 1.749 ± 0.037
243.16 K, 30000 kPa | 2.761 ± 0.057
253.15 K, 100 kPa | 1.307 ± 0.027
253.15 K, 1000 kPa | 1.339 ± 0.029
253.15 K, 5000 kPa | 1.451 ± 0.03
253.15 K, 10000 kPa | 1.58 ± 0.033
253.15 K, 20000 kPa | 1.913 ± 0.04
253.15 K, 30000 kPa | 2.26 ± 0.047
253.16 K, 40000 kPa | 2.659 ± 0.055
263.14 K, 5000 kPa | 1.197 ± 0.025
263.14 K, 10000 kPa | 1.327 ± 0.028
263.14 K, 20000 kPa | 1.573 ± 0.033
263.14 K, 30000 kPa | 1.86 ± 0.039
263.14 K, 40000 kPa | 2.169 ± 0.045
263.15 K, 100 kPa | 1.082 ± 0.023
263.15 K, 1000 kPa | 1.107 ± 0.024
273.14 K, 100 kPa | 0.9209 ± 0.02
273.14 K, 20000 kPa | 1.332 ± 0.028
273.15 K, 1000 kPa | 0.9395 ± 0.02
273.15 K, 5000 kPa | 1.014 ± 0.022
273.15 K, 10000 kPa | 1.117 ± 0.024
273.15 K, 30000 kPa | 1.566 ± 0.033
273.15 K, 40000 kPa | 1.818 ± 0.038
283.15 K, 100 kPa | 0.7823 ± 0.017
283.15 K, 1000 kPa | 0.7955 ± 0.017
283.15 K, 5000 kPa | 0.8641 ± 0.019
283.15 K, 10000 kPa | 0.9569 ± 0.021
283.15 K, 20000 kPa | 1.142 ± 0.024
283.15 K, 30000 kPa | 1.345 ± 0.028
283.15 K, 40000 kPa | 1.567 ± 0.033
293.14 K, 10000 kPa | 0.8262 ± 0.018
293.15 K, 100 kPa | 0.6693 ± 0.015
293.15 K, 1000 kPa | 0.6851 ± 0.015
293.15 K, 5000 kPa | 0.7466 ± 0.016
293.15 K, 40000 kPa | 1.35 ± 0.028
293.16 K, 20000 kPa | 0.9881 ± 0.021
293.16 K, 30000 kPa | 1.156 ± 0.025
303.14 K, 5000 kPa | 0.6463 ± 0.014
303.15 K, 100 kPa | 0.5776 ± 0.013
303.15 K, 10000 kPa | 0.7173 ± 0.016
303.15 K, 20000 kPa | 0.861 ± 0.018
303.15 K, 40000 kPa | 1.177 ± 0.025
303.16 K, 1000 kPa | 0.5906 ± 0.013
303.16 K, 30000 kPa | 1.013 ± 0.022
313.13 K, 1000 kPa | 0.5123 ± 0.012
313.14 K, 5000 kPa | 0.5621 ± 0.013
313.14 K, 20000 kPa | 0.7566 ± 0.017
313.14 K, 30000 kPa | 0.8908 ± 0.019
313.15 K, 100 kPa | 0.5006 ± 0.011
313.15 K, 10000 kPa | 0.6263 ± 0.014
313.15 K, 40000 kPa | 1.033 ± 0.022
323.16 K, 1000 kPa | 0.4465 ± 0.01
323.16 K, 20000 kPa | 0.668 ± 0.015
323.16 K, 30000 kPa | 0.7894 ± 0.017
323.16 K, 40100 kPa | 0.9178 ± 0.02
323.17 K, 5000 kPa | 0.4933 ± 0.011
323.17 K, 10000 kPa | 0.5514 ± 0.012
333.16 K, 1000 kPa | 0.3918 ± 0.0093
333.16 K, 5000 kPa | 0.4349 ± 0.01
333.16 K, 10000 kPa | 0.4891 ± 0.011
333.16 K, 20000 kPa | 0.5966 ± 0.013
333.16 K, 30000 kPa | 0.7059 ± 0.015
333.16 K, 40000 kPa | 0.8211 ± 0.018
343.15 K, 5000 kPa | 0.3849 ± 0.0092
343.15 K, 10000 kPa | 0.4348 ± 0.01
343.15 K, 20000 kPa | 0.5345 ± 0.012
343.15 K, 30000 kPa | 0.6351 ± 0.014
343.15 K, 40000 kPa | 0.7373 ± 0.016
343.16 K, 1000 kPa | 0.342 ± 0.0084
353.15 K, 1000 kPa | 0.3011 ± 0.0077
353.15 K, 30000 kPa | 0.5739 ± 0.013
353.15 K, 40000 kPa | 0.6681 ± 0.015
353.16 K, 5000 kPa | 0.3426 ± 0.0084
353.16 K, 10000 kPa | 0.3892 ± 0.0093
353.16 K, 20000 kPa | 0.4822 ± 0.011
363.15 K, 5000 kPa | 0.3044 ± 0.0077
363.15 K, 10000 kPa | 0.3496 ± 0.0085
363.15 K, 20000 kPa | 0.436 ± 0.01
363.15 K, 30000 kPa | 0.5213 ± 0.012
363.15 K, 40000 kPa | 0.608 ± 0.013
373.15 K, 5000 kPa | 0.2711 ± 0.0071
373.15 K, 10000 kPa | 0.3155 ± 0.0079
373.15 K, 20000 kPa | 0.397 ± 0.0094
373.15 K, 30000 kPa | 0.4778 ± 0.011
373.15 K, 40000 kPa | 0.5583 ± 0.013
